{"source": "patent EP0745595A1", "about": "“3-(3-Aryloxyphenyl)-1-(substituted methyl)-s-triazine-2,4,6-oxo or thiotrione herbicidal agents” (American Cyanamid Company, priority 1995, dated 1996)", "assay_type_in_all_cases": "in vivo", "key": {"CHENOPODIUM ALBUM, L. [1]": {"test_system": "CHENOPODIUM ALBUM, L.", "test": "Preemergence herbicidal evaluation, CHEAL (Lambsquarters, Common);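 further: higher means more injury with 8 approaching complete kill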", "source_text": "(§1) Results of herbicide evaluation are expressed on a rating scale (0-9). The scale is based upon a visual observation of plant stand, vigor, malformation, size, chlorosis and overall plant appearance as compared with a control.\nThe preemergence herbicidal activity of the test compounds of the present invention is exemplified by the following tests in which the seeds of a variety of monocotyledonous and dicotyledonous plants are separately mixed with potting soil and planted on top of approximately one inch of soil in separate pint cups. […] The treated cups are then placed on greenhouse benches, watered and cared for in accordance with conventional greenhouse procedures. From four to five weeks after treatment, the tests are terminated and each cup is examined and rated according to the rating system provided in Example 40.\nThe compounds evaluated are reported by compound number given in Example 40."}, "ZEA MAYS L.": {"test_system": "ZEA MAYS L.", "test": "Postemergence herbicidal evaluation, ZEAMX (Corn, Field)", "protocol": "(§2) In the tests, seedling plants are grown in jiffy flats for about two weeks. The test compounds are dispersed in 50/50 acetone/water mixtures containing 0.5% TWEEN®20, a polyoxyethylene sorbitan monolaurate surfactant of Atlas Chemical Industries, […] to the plants through a spray nozzle operating at 40 psi for a predetermined time. After spraying, the plants are placed on greenhouse benches and are cared for in the usual manner, commensurate with conventional greenhouse practices. From four to five weeks after treatment, the seedling plants are examined and rated according to the rating system set forth below. Where more than one test is involved for a given compound, the data are averaged.\n(§3) Plant species employed in these evaluations are reported by header abbreviation, common name and scientific name.\nas §1"}, "[2]": {"test_system": "GLYCINE MAX(L) MERR. CV. WILLIAMS", "test": "Postemergence herbicidal evaluation, GLXMAW (Soybean, Williams)", "set-up": "key to GLXMAW rating / Herbicidal effect rating, GLXMAW / GLXMAW: 0-9 visual rating scale vs untreated control", "protocol": "(§4) In the tests, seedling plants are grown in jiffy flats for about two weeks. The test compounds are dispersed in 50/50 acetone/water mixtures containing 0.5% TWEEN®20, a polyoxyethylene sorbitan monolaurate surfactant of Atlas Chemical Industries, in sufficient quantities to provide the equivalent of about 0.125 kg to 0.500 kg per hectare of active compound when applied to the plants through a spray nozzle operating at 40 psi for a predetermined time. After spraying, the plants are placed on greenhouse benches and are cared for in the usual manner, commensurate with conventional greenhouse practices. From four to five weeks after treatment, the seedling plants are examined and rated according to the rating system set forth below. Where more than one test is involved for a given compound, the data are averaged.\nas §3, §1"}, "IPOMOEA SPP.": {"test_system": "IPOMOEA SPP.", "test": "Postemergence herbicidal evaluation, IPOSS (Morningglory spp.)", "protocol": "as §2, §3, §1"}, "CHENOPODIUM ALBUM, L. [3]": {"test_system": "CHENOPODIUM ALBUM, L.", "test": "Postemergence herbicidal evaluation, CHEAL (Lambsquarters, Common)", "protocol": "as §2, §3, §1"}, "[4]": {"test_system": "AMBROSIA ARTEMISIIFOLIA, L.", "test": "Postemergence herbicidal evaluation, AMBEL (Ragweed, Common)", "protocol": "as §2, §3, §1"}, "[5]": {"test_system": "ABUTILON THEOPHRASTI, MEDIC.", "test": "Postemergence herbicidal evaluation, ABUTH (Velvetleaf)", "protocol": "as §2, §3, §1"}, "[6]": {"test_system": "SETARIA VIRIDIS, (L) BEAU", "test": "Postemergence herbicidal evaluation, SETVI (Foxtail, Green)", "set-up": "key to SETVI rating / Herbicidal effect rating, SETVI / SETVI: 0-9 visual rating scale vs untreated control", "protocol": "as §4, §3, §1"}, "[7]": {"test_system": "ECHINOCHLOA CRUS-GALLI, (L) BEAU", "test": "Postemergence herbicidal evaluation, ECHCG (Barnyardgrass)", "set-up": "key to ECHCG rating / Herbicidal effect rating, ECHCG / ECHCG: 0-9 visual rating scale vs untreated control", "protocol": "as §4, §3, §1"}}, "data": [{"smiles": "Cn1c(=O)[nH]c(=O)n(-c2cc(Oc3c(F)cc(C(F)(F)F)cc3Cl)ccc2Br)c1=O", "note": "[A, reference compound]", "values": [{"measurement": "CHEAL", "setting": "CHENOPODIUM ALBUM, L. [1]; Rate 0.063 kg/ha", "result": 9.0}, {"measurement": "CHEAL", "setting": "CHENOPODIUM ALBUM, L. [1]; Rate 0.125 kg/ha", "result": 9.0}, {"measurement": "CHEAL", "setting": "CHENOPODIUM ALBUM, L. [1]; Rate 0.250 kg/ha", "result": 9.0}, {"measurement": "CHEAL", "setting": "CHENOPODIUM ALBUM, L. [1]; Rate 0.500 kg/ha", "result": 9.0}, {"measurement": "Herbicidal effect rating, ZEAMX", "setting": "ZEA MAYS L.; 0.063 kg/ha", "result": 0.0}, {"measurement": "Herbicidal effect rating, ZEAMX", "setting": "ZEA MAYS L.; 0.125 kg/ha", "result": 0.0}, {"measurement": "Herbicidal effect rating, ZEAMX", "setting": "ZEA MAYS L.; 0.250 kg/ha", "result": 0.0}, {"measurement": "Herbicidal effect rating, ZEAMX", "setting": "ZEA MAYS L.; 0.500 kg/ha", "result": 2.0}, {"measurement": "Herbicidal effect rating, GLXMAW", "setting": "[2]; 0.063 kg/ha", "result": 2.0}, {"measurement": "Herbicidal effect rating, GLXMAW", "setting": "[2]; 0.125 kg/ha", "result": 3.0}, {"measurement": "Herbicidal effect rating, GLXMAW", "setting": "[2]; 0.250 kg/ha", "result": 3.0}, {"measurement": "Herbicidal effect rating, GLXMAW", "setting": "[2]; 0.500 kg/ha", "result": 5.0}, {"measurement": "Herbicidal effect rating, IPOSS", "setting": "IPOMOEA SPP.; 0.063 kg/ha", "result": 6.0}, {"measurement": "Herbicidal effect rating, IPOSS", "setting": "IPOMOEA SPP.; 0.125 kg/ha", "result": 7.0}, {"measurement": "Herbicidal effect rating, IPOSS", "setting": "IPOMOEA SPP.; 0.250 kg/ha", "result": 9.0}, {"measurement": "Herbicidal effect rating, IPOSS", "setting": "IPOMOEA SPP.; 0.500 kg/ha", "result": 9.0}, {"measurement": "Herbicidal effect rating, CHEAL", "setting": "CHENOPODIUM ALBUM, L. [3]; 0.063 kg/ha", "result": 9.0}, {"measurement": "Herbicidal effect rating, CHEAL", "setting": "CHENOPODIUM ALBUM, L. [3]; 0.125 kg/ha", "result": 9.0}, {"measurement": "Herbicidal effect rating, CHEAL", "setting": "CHENOPODIUM ALBUM, L. [3]; 0.250 kg/ha", "result": 9.0}, {"measurement": "Herbicidal effect rating, CHEAL", "setting": "CHENOPODIUM ALBUM, L. [3]; 0.500 kg/ha", "result": 9.0}, {"measurement": "Herbicidal effect rating, AMBEL", "setting": "[4]; 0.063 kg/ha", "result": 1.0}, {"measurement": "Herbicidal effect rating, AMBEL", "setting": "[4]; 0.125 kg/ha", "result": 2.0}, {"measurement": "Herbicidal effect rating, AMBEL", "setting": "[4]; 0.500 kg/ha", "result": 5.0}, {"measurement": "Herbicidal effect rating, ABUTH", "setting": "[5]; 0.063 kg/ha", "result": 5.0}, {"measurement": "Herbicidal effect rating, ABUTH", "setting": "[5]; 0.125 kg/ha", "result": 6.0}, {"measurement": "Herbicidal effect rating, ABUTH", "setting": "[5]; 0.250 kg/ha", "result": 6.0}, {"measurement": "Herbicidal effect rating, ABUTH", "setting": "[5]; 0.500 kg/ha", "result": 9.0}, {"measurement": "Herbicidal effect rating, SETVI", "setting": "[6]; 0.063 kg/ha", "result": 0.0}, {"measurement": "Herbicidal effect rating, SETVI", "setting": "[6]; 0.125 kg/ha", "result": 2.0}, {"measurement": "Herbicidal effect rating, SETVI", "setting": "[6]; 0.250 kg/ha", "result": 2.0}, {"measurement": "Herbicidal effect rating, SETVI", "setting": "[6]; 0.500 kg/ha", "result": 5.0}, {"measurement": "Herbicidal effect rating, ECHCG", "setting": "[7]; 0.063 kg/ha", "result": 0.0}, {"measurement": "Herbicidal effect rating, ECHCG", "setting": "[7]; 0.125 kg/ha", "result": 0.0}, {"measurement": "Herbicidal effect rating, ECHCG", "setting": "[7]; 0.250 kg/ha", "result": 2.0}, {"measurement": "Herbicidal effect rating, ECHCG", "setting": "[7]; 0.500 kg/ha", "result": 2.0}]}]}
